Assay [1] concerns learning memory of LACA mice. Briefly: Water maze experiment, effect on learning memory of mice (d value analysis of response time). Format: in vivo. To be noted: 400 mg/kg orally vs control group; second time test; n = 27. The source says:
The medicinal preparation of the present invention was used in a water maze experiment to study its effect on the learning memory of LACA mice. The Piracetam Tablets was used as a positive comparative drug for testing 6 days per week. The test lasted for 27 days. According to the data listed in the Table 2, it is readily apparent that the preparation of the present invention has a meaningful effect on the learning memory of the mice, as exemplified by the difference in the response time between the control group and the doped groups, which were respectively doped with 50 mg/kg of the preparation containing phenylethanoid glycosides, 200 mg/kg of the preparation containing phenylethanoid glycosides, and 400 mg/kg of the preparation containing phenylethanoid glycosides.

Assay [2] concerns memory loss of LACA mice induced by ethanol. The assay is described as follows: Water maze experiment, prevention of memory loss induced by ethanol. It counts as in vivo. The conditions noted are these: 400 mg/kg, one-week orally. As to the method: The effect of the preparation of the present invention on the prevention of memory loss by the LACA mice was studied by the water maze experiment. The mice were orally administered with the drugs. One hour after such an oral administration, they were provided with 30% ethanol 0.1 ml/10 g BW. In 30 minutes, the water maze experiment was started.

The subject of assay [3] is thrombosis of the vein bypass of rats. The assay is described as follows: Thrombosis of the vein bypass of rats. Format: in vivo, male SD rats. To be noted: 100 mg/kg orally. An excerpt: A study was done on the effect of the preparation of the present invention on thrombosis of the vein bypass of the rats. The male SD rats were studied as compared with the aspirin. Thrombosis inhibition rate (%)=(distilled water comparative group thrombosis weight−drug group thrombosis weight)/distilled water comparative group thrombosis weight×100%.

The subject of assay [4] is blood platelets aggregation of rats. Briefly: ADP-caused aggregation of blood platelets of rats after oral administration. Format: in vivo, male SD rats. To be noted: 100 mg/kg orally for 7 days. As for the experimental part: A study was done on the effect of the preparation of the present invention on aggregation of blood platelets of the rats.
The aggregation of blood platelets was caused by using adenosine disodium diphosphate (ADP). 1 mg/ml ADP solution was kept refrigerated before use. When the ADP solution was about to be used, it was diluted three times with the phosphoric acid buffer solution.
The male SD rats were randomly divided into five groups in accordance with the body weight. These five groups were the distilled water comparative group, the aspirin group, the 200 mg/kg preparation group, the 100 mg/kg preparation group, and the 50 mg/kg preparation group. The drugs were orally administered, with the administration volume being […]. The rats of the distilled water comparative group were given distilled water in same quantity. The administration continued for 7 days. The rats were not fed for 12 hours prior to the final administration. One hour after the final administration the blood was drawn out from the main artery. The blood so draw out was prevented from aggregation by 3.8% sodium citrate (1:9). […] The aggregation degree was determined by using a SPA-4 multifunctional blood platelet aggregation meter. The inhibition rate of the blood platelet aggregation is calculated by the following formula. […]

In the case of `NC(=O)CN1CCCC1=O` [Piracetam], in assay [1], the “d value ≧0.5, %” value is given as 18.5%; the “d value ≧0.5, day” value came out at 5 days; the “d value ≧0.5 sum, %” value is on record as 25.5%; the “d value ≧0.5 sum, day (period when the response time shows meaningful difference)” value was found to be 7 days. Also, in assay [1], the “d value ≧0.8, %” value worked out at 7.4% and the “d value ≧0.8, day” value was 2 days. For the same compound, in assay [2], the “Arrival at destination after being trained, Error number” value was 0/0; the “Arrival at destination after being trained, Time” value worked out at 8.00 ± 0.46 s; the “Arrival at destination after being trained, error number of animal” value was 0/0. Further, in assay [2] (30% ethanol 0.1 ml/10 g BW), the “Arrival at destination after being given alcohol, Error number” value amounted to 54; the “Arrival at destination after being given alcohol, Error rate” value was 9.00 times/number of animal; the “Arrival at destination after being given alcohol, Group error rate” value is given as 5.40 times/number of animal; the “Arrival at destination after being given alcohol, error number of animal” value amounted to 6.

In turn, `CC(=O)Oc1ccccc1C(=O)O` [aspirin] registered a thrombosis inhibition rate in assay [3] (vs distilled water comparative group) of 34.97%. In assay [3] (x ± SD), this compound had a thrombosis weight of 29.2 ± 4.00 mg. In assay [4] (vs distilled water group), the aggregation inhibition is on record as 40.30%. For the same compound, the maximum aggregation in assay [4] (±SD) amounted to 32.73 ± 11.14 %.

Source of the values: patent US7087252B2, “Medicinal preparation containing phenylethanoid glycosides extracted from herbaceous plant, Cistanche tubulosa (Schrenk.) Wight, process of making the same, and uses of the same” (Sinphar Pharmaceutical Co., Ltd., priority 2003, dated 2006).
